Experiment: gradient 5% acetonitrile 3 min, to 50% in 2 min, to 85% in 15 min, held 3 min, 100 µL/min
Details: column: Zorbax Extend-C18 2.1 x 50 mm; eluents: water / acetonitrile, 0.1% formic acid
Method in brief: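 Pure standards were analyzed in mixtures of ~100 molecules using HPLC coupled to a quadrupole time-of-flight mass spectrometer, in both positive and negative ionization mode. Separation used a Zorbax Extend-C18 column (2.1 × 50 mm, 1.8 μm) at 100 μL/min, with water and acetonitrile each containing 0.1% formic acid. Dead and dwell volumes were 40 μL and 900 μL, and data were collected over 3 months. Retention time was read from computationally picked adduct peaks, each inspected manually.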

SMILES | RP-LC retention time [s]
CC(C)n1c(=O)n(CC(=O)NC2CCCc3ccccc32)c2cc(S(=O)(=O)N3CCCC3)ccc21 (stereo not drawn) | 927
CCN1C(=O)CCc2cc(NC(=O)Cc3ccc(OC)cc3Cl)ccc21 | 647
Cn1c(C2CCN(C(=O)Nc3cc(F)ccc3F)CC2)cc(=O)n2nccc12 | 695
CCc1nc(-c2csc(S(=O)(=O)N3CCC(C(=O)NCc4ccccc4C)CC3)c2)no1 | 818
CCc1ccccc1NS(=O)(=O)c1cc(-c2c(CC)noc2NC(C)=O)ccc1OC | 838
COc1cc2c(cc1CNC(=O)c1ccc(Br)cc1)OCCCO2 | 939
COc1ccc2c(c1)C1(CCN(C(=O)c3cccc(Br)c3)C1)C(=O)N2C (stereo not drawn) | 845
CCc1nc2cc3c(cc2n1CC(=O)Nc1ccc2c(c1)OCCO2)OCCO3 | 618
O=C(NCCC1CCN(C(=O)Nc2cc(F)ccc2F)CC1)c1cccs1 | 818
CCCCS(=O)(=O)N1CCC(n2c(-c3ccc(OC)cc3)nc3cccnc32)C1 (stereo not drawn) | 846
O=C(NCCc1csc(-c2cccs2)n1)C1CCN(C(=O)CCc2ccccc2)CC1 | 839
CCN1CCN(CCCNc2ccc(-c3nc(-c4ccc(C)cc4)no3)cn2)CC1 | 646
O=C(c1ccc(CS(=O)c2ccc(Br)cc2)o1)N1CCN(c2ccccn2)CC1 (stereo not drawn) | 580
Cc1ccc(C)c(NC(=O)N2CCN(c3cnn4c(C)nnc4c3)CC2)c1 | 629
Cc1cc(C)c(S(=O)(=O)N2CC(=O)N(CC3CC3)C3(CCOCC3)C2)c(C)c1 | 944
CCn1ncn2cc(S(=O)(=O)NCc3ccc(Cl)cc3)cc2c1=O | 878
CCOC(=O)CNC(=O)NCCc1nc2cccnc2n1Cc1ccccc1 | 648
CC(C)Cc1noc(C2(F)CCN(S(=O)(=O)c3ccccc3)CC2)n1 | 691
COc1ccc(-c2n[nH]c3c2C(c2ccc(OC)cc2OC)NC3=O)cc1 (stereo not drawn) | 736
Cc1nn(-c2cc(N3CCCCC3)ncn2)c(C)c1CCC(=O)N1CCN(c2ccccn2)CC1 | 639
Cn1cc(CN2C[C@@H](CO)[C@H](NC(=O)C3CCC3)C2)c2ccccc21 | 615
O=C(Nc1ccccc1[N+](=O)[O-])C(=O)N1CCN(Cc2ccc3c(c2)OCO3)CC1 | 592

SMILES | RP-LC retention time [s]
COc1ccc(-c2nnc(COc3cccc(NC(=O)c4ccsc4)c3)o2)cc1 | 914
CCSc1nnc(-c2nn(C)c3c2CN(C(=O)c2ccccc2)CC3)n1C | 716
Cc1ccc(Nc2ncnc3nc[nH]c23)cc1Cl | 682
CCC(=O)N1CCN(C(=O)c2ccccc2)CC1 | 693
Cc1nnc(NC(=O)CSc2nnc(NC(=O)Nc3cccs3)s2)s1 | 634
Cc1noc2nc(CCC(=O)N3CCc4ccccc43)nc(N3CCCCCC3)c12 | 1060
c1ccc(-c2ccc(C(c3ccccc3)n3ccnc3)cc2)cc1 (stereo not drawn) | 906
COC(=O)COC(=O)c1cn(-c2ccc(OC)cc2)c(=O)c2ccccc12 | 924
Cc1ccc(N2CCC(NC(=O)Nc3cccc(Br)c3)C2=O)cc1 (stereo not drawn) | 955
COc1cccc(Cn2c(=O)c3sccc3n(Cc3nc(-c4cccc(OC)c4)no3)c2=O)c1 | 1080
COCCCn1c(=O)c2ccccc2n(Cc2nc(-c3ccc(Cl)cc3)no2)c1=O | 1070
O=c1c2sccc2n(Cc2nc(-c3ccc(Cl)c(F)c3)no2)c(=O)n1-c1cccc(F)c1 | 1090
CC1CCCN(c2ccc(-c3noc(CN(C)C4CCCCC4)n3)cn2)C1 (stereo not drawn) | 721
Cc1ccc(NC(=O)C(=O)NCC2CCN(S(C)(=O)=O)CC2)cc1N1CCCC1=O | 627
Cc1cc(N(CCCl)CCCl)ccc1/C=N/NC(=O)Cc1cc(=O)oc2cc(O)ccc12 | 862
Cc1noc(/C=C/c2ccc(S(=O)(=O)N3CCOCC3)s2)c1NC(=O)C1CC1 | 778
CCOc1cccc(-c2noc(-c3nnn4c3COC(c3cccc(OC)c3)C4)n2)c1 (stereo not drawn) | 1210
O=C(NCc1ccc2c(c1)OCO2)c1cn2c(n1)COCC2 | 616
O=C(NCc1cccc(C(F)(F)F)c1)C1CCCN(c2nccnc2Oc2ccccc2)C1 (stereo not drawn) | 1040
COc1ccc(-c2noc(C3CC(=O)N(c4ccc(C)c(Cl)c4)C3)n2)cc1OC (stereo not drawn) | 1020
O=C(Cn1ncc2c(N3CCN(c4ccccn4)CC3)ncnc21)Nc1ccccc1Br | 608
Cc1cccc(S(=O)(=O)N2CC3CN(C(=O)C(C)c4ccccc4)CC(C2)O3)c1 (stereo not drawn) | 905

SMILES | RP-LC retention time [s]
COCCN(CCOC)C(=O)Cc1csc(NC(=O)Nc2ccc(Cl)cc2)n1 | 733
CCCn1cc(CCNC(=O)c2ccc(C)c(F)c2)c2cccnc21 | 815
CCOc1ccc(-c2noc(Cn3nc(-c4ccccc4)ccc3=O)n2)cc1 | 1070
Oc1cccc(-c2nc3cnc(Br)cn3c2Nc2ccc3c(c2)OCCO3)c1 | 794
O=C(Cn1c(=O)cc(C(=O)N2CCCCC2)c2ccccc21)NC1CCCC1 | 697
Cc1ccc(CNC(=O)c2c(C)sc3ccn(CC(C)C)c(=O)c23)o1 | 683
Cc1cc(=O)n(CC(=O)Nc2ccc3c(c2)OCCO3)c(N2CCCCC2)n1 | 645
O=S(=O)(NC1CCCCCC1)c1ccc2c(c1)-c1oncc1CO2 | 1000
Cc1c(C(=O)Nc2ccccc2)cnc2nc(-c3ccncc3)nn12 | 594
O=C(NC1CC1)C1CCCN(C(=O)c2ccccc2F)C1 (stereo not drawn) | 634
Cc1nc(C2CCOCC2)n(C2CCN(S(=O)(=O)c3ccccc3Cl)C2)n1 (stereo not drawn) | 740
COc1ccccc1-c1cc2c(=O)n(Cc3nc(-c4ccccc4)oc3C)ccn2n1 | 1120
Cc1cccc(-n2c(=O)c3c(cc(C)n3C)n(CC(=O)Nc3ccccc3Cl)c2=O)c1 | 842
CCCN1CCN(CCCNC(=O)CCc2nc(N3CCCCC3)c3c(CC)noc3n2)CC1 | 598
O=C(CN1CC=C(c2cnn(-c3ccccc3)c2)CC1)N1CCCc2ccccc21 | 726
O=C1C2CCCN2C(=O)c2ccccc2N1Cc1ccccc1 (stereo not drawn) | 744
COC(=O)N[C@@H](C)CNc1nccc(-c2cn(C(C)C)nc2-c2cc(Cl)cc(NS(C)(=O)=O)c2F)n1 | 792
NC(=O)c1ccccc1OCC(=O)Nc1ccc(Cl)c(Cl)c1 | 895
COCc1cc(=O)n(CC(=O)Nc2ccc(Br)cc2)c(N2CCOCC2)n1 | 892
O=C(NCc1cscn1)C1CCN(S(=O)(=O)c2ccc(Cl)s2)CC1 | 739
O=C(CCC(=O)N1CC2CCCN2c2ccccc21)NCCN1CCCCCC1 (stereo not drawn) | 646
O=C(CSc1nccn1-c1ccc(Cl)cc1)NCc1ccco1 | 655

SMILES | RP-LC retention time [s]
COc1ccc(NC(=O)CN2CCc3[nH]c4c(C)c(Cl)ccc4c(=O)c3C2)cc1Cl | 762
CCC(=O)Nc1nc(-c2ccc3c(c2)NC(=O)CO3)c(C)s1 | 719
CCOc1ccc(-c2noc(Cn3c(=O)n(-c4ccccc4)c(=O)c4sccc43)n2)cc1OC | 910
CCc1nnc2cc(N3CCN(C(=O)Nc4cccc(C)c4)CC3)cnn12 | 593
O=C(NC1CCCCC1)c1ccc2ncnc(N3CCCCC3)c2c1 | 658
CC(=O)N1CCc2cc(N3CC(C(=O)Nc4cccc(Cl)c4C)CC3=O)ccc21 (stereo not drawn) | 723
Cc1ccc(-c2ccnc(SCC(=O)NCc3ccccc3)n2)cc1C | 944
Cc1ccc(C(=O)N2CCc3[nH]nc(C(=O)N(C)C)c3C2)cc1F | 625
CCOc1ccc(C(=O)Nc2nc3c(s2)CCc2ccccc2-3)cc1 | 1200
COc1ccc(CN2CC3(CCN(S(=O)(=O)c4cc(F)ccc4F)CC3)C2=O)cc1 | 924
CCOCCCN1C(=O)CN(C2CCCCCC2)C(=O)C1c1ccc(OCC)c(OC)c1 (stereo not drawn) | 925
CC(C)Cn1c(=O)c(N2CCN(C(=O)CSc3ccccc3)CC2)nc2ccncc21 | 724
Cc1ccc(NC(=O)N2CCCC(Cn3c(C4CC4)nc4cccnc43)C2)c(C)c1 (stereo not drawn) | 694
COCCN1C(=O)Cc2ccccc2C1C(=O)NCc1ccco1 (stereo not drawn) | 676
Cc1cccc(Nc2nc(C(=O)NCCc3cccs3)nc3ccccc23)c1 | 863
CCCN(CCC)C(=O)C1CCN(S(=O)(=O)c2ccc3c(c2)CCCC(=O)N3)CC1 | 694
COc1ccc(C)cc1NC(=O)N1CCCC1c1cc(C)no1 (stereo not drawn) | 835
Cc1ccc(NC(=O)N2CCc3cn(C)c4cccc(c34)C2)cc1 | 629
CCC1=NS(=O)(=O)c2cccnc2N1c1ccc(Br)cc1 | 903
CCn1c(N2CCN(C(=O)Nc3ccccc3OC)CC2)nc2ccccc21 | 655
CC1=C(C(=O)N2CCOCC2)C(c2cccc(Br)c2)C2=C(CCCC2=O)N1 (stereo not drawn) | 664
Cc1nc(-c2cccc(F)c2)sc1CCNC(=O)C(=O)Nc1ccccc1Cl | 1160

Source: the METLIN SMRT retention time set (Domingo-Almenara et al. 2019)
